# Results from patent US20220213126A1, “SMALL MOLECULE AUTOPHAGY INDUCERS FOR THE TREATMENT OF CANCER AND NEURODEGENERATIVE DISEASES” (John Wayne Cancer Institute, priority 2019, published 2022).
# Read-outs that look alike come from different tables or passages of the source.
# Legend:
# [1] = system: MDA-MB-231 tumor xenografts; experiment: MDA-MB-231 tumor xenograft efficacy; format: in vivo, athymic nude mice
# Procedure: To evaluate the anti-tumor efficacy of VMY-BC-1 in vivo, MDA-MB-231 tumor xenografts were established in the flanks of athymic nude mice. 5×10^6 MDA-MB-231 TNBC cells in 1×HBSS with 1:1 Matrigel® were implanted subcutaneously in the flank of 5-6 week old female athymic nude mice (CrTac:Ncr-Foxn1^nu; Taconic Biosciences, India). Mice (n=8) were treated with vehicle (2% (v/v) Tween® 80+98% (v/v) of 0.5% (w/v) hydroxypropyl methylcellulose (HPMC) in water) or VMY-BC-1 75 mg/kg PO daily for 14 days. The dose volume was 10 mL/kg. Tumor volume, tumor growth inhibition (TGI), body weight, and clinical signs were monitored. Tumor growth was measured twice weekly using a digital Vernier caliper. Tumor volume was calculated as [length×width^2]/2. TGI was calculated as:
# % TGI={(TV ControlFinal−TV ControlInitial)−(TV TreatedFinal−TV TreatedInitial)}×100
# At the end of the study, brain and plasma samples were collected for drug concentration. Tumor tissues were collected for immunohistochemistry, Western blot, and bioanalysis. Statistical analysis of tumor growth in the control and treated groups was performed by Student's T test using GraphPad Prism (Ver. 5.03).
# [2] = In vivo ADME/plasma pharmacokinetics in male CD1 mice
# Procedure: FIG. 8 is a graph showing plasma pharmacokinetics of VMY-BC-1 in vivo. Concentrations are expressed as the mean±SEM.
# In vivo ADME characteristics were determined in male CD1 mice following VMY-BC-1 administration at 1 mg/kg intravenously and 25 mg/kg and 100 mg/kg orally (FIG. 8). […] Sustained oral absorption following the 100 mg/kg oral administration indicated solubility was not limited oral absorption.
# GBM4 = experiment: GBM cell viability, Alamar blue, 72 hours; format: cell-based; settings: GBM4, patient-derived cell line
# Procedure: (§1) The effect of VMY-BC-1 was tested on a panel of GBM cell lines. […] In this study 100 μM was the highest drug concentration used, with 3-fold dilution for a 10 dose response curve.
# GL261 = experiment: GBM cell viability, Alamar blue, 72 hours; format: cell-based; settings: Mus musculus, GL261, established glioma cell line
# Procedure: as §1
# U87 = experiment: GBM cell viability, Alamar blue, 72 hours; format: cell-based; settings: Homo sapiens, U-87 MG, U87, established glioma cell line
# Procedure: as §1
# GBM8 = experiment: GBM cell viability, Alamar blue, 72 hours; format: cell-based; settings: GBM8, patient-derived cell line
# Procedure: as §1
# U251 = experiment: GBM cell viability, Alamar blue, 72 hours; format: cell-based; settings: Homo sapiens, U-251, U251, established glioma cell line
# Procedure: as §1
# MDA-MB-231 = experiment: TMT quantitative proteomics with Ingenuity Pathway Analysis; format: cell-based; settings: 10 μM
# Procedure: A global quantitative proteomics approach using multiplexed tandem mass tagged (TMT) isotope labeling technology and shotgun mass spectrometry (Hung et al., Anal. Chem. 84:161-170, 2012) (FIG. 3) was used to quantitate approximately 5,400 proteins. MDA-MB-231 cells were treated with vehicle control (DMSO) or 10 μM VMY-BC-1 for 4 time points. Equal amounts of protein from cell lysates were trypsin digested (Step 1) and labelled with TMT 10-plex reagent (Step 2).
# CYP2C9 = target: T1, CYP2C9 (Homo sapiens, UniProt P11712); experiment: CYP inhibition in pooled human liver microsomes; format: in vitro ADME
# T1 construct: from tissue; host or cells: pooled human liver microsomes
# [3] = system: polyQ-expressing C. elegans; experiment: PolyQ aggregation in C. elegans Huntington's disease model; format: in vivo; settings: 1 μM, 72 hours
# Procedure: Synchronized populations of polyQ-expressing C. elegans were grown for 72 hours on media containing 1 μM VMY-BC-1. PolyQ aggegrative vacuoles were detected using confocal microscopy. PolyQ aggregations were decreased compared to vehicle (DMSO) (FIG. 21A). Synchronized populations of wild-type worms were grown on media containing VMY-BC-1 from 0.1 to 10 μM.
# CYP3A4 = target: T2, CYP3A4 (Homo sapiens, UniProt P08684); experiment: CYP inhibition in pooled human liver microsomes; format: in vitro ADME
# T2 construct: from tissue; host or cells: pooled human liver microsomes
# [4] = system: proteins of MDA-MB-1 cells; experiment: Thermal proteome profiling (TPP) for binding proteins
# Procedure: To further elucidate targets that activate the above signaling mechanisms, thermal proteome profiling (TPP) was used to identify binding proteins (Franken et al., Nat. Protoc. 10:1567-1593, 2015; Miettinen et al., EMBO J. 37:e98359, 2018) (FIG. 5A). TPP enables an unbiased assessment of the proteins […] bound to VMY-BC-1 on a proteome-wide scale. Cell lysates were made from MDA-MB-1 cells treated with vehicle or 10 μM VMY-BC-1 for 24 hours. Lysates were heated at different temperatures for 3 minutes in a thermal cycler. Equal amounts of protein were digested, labeled with TMT 10-plex and analyzed by mass spectrometry. The fold-changes in protein abundances were computed relative to the lowest temperature in the temperature set. After a normalization, melting curves were fitted to the fold-changes of each individual protein. The thermal stability of proteins affected by VMY-BC-1 treatment was calculated using the differences between melting points from control for each protein. From the 5,634 proteins screened, 10 target proteins were identified that bound VMY-BC-1: LIMK1, ATM, CDLK5, ULK1, WNK1, PP2C, AK1, IKBKAP, Q53E18, and HDAC1 (FIG. 5B).
# T2 sequence (P08684 2-503): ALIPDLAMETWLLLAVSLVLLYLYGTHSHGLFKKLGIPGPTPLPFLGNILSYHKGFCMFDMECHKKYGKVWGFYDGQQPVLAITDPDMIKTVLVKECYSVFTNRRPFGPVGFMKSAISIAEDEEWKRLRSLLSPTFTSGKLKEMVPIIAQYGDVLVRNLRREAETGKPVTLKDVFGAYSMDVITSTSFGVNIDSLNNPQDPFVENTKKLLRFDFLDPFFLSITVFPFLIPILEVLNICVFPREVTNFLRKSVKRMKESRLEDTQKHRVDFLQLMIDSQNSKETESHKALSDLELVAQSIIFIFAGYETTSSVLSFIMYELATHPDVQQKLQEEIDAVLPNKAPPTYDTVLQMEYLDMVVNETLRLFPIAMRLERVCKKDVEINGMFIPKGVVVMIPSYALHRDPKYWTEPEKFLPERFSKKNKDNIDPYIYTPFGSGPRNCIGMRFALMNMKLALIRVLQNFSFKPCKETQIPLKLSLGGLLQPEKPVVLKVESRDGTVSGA
# T1 sequence (P11712 whole entry): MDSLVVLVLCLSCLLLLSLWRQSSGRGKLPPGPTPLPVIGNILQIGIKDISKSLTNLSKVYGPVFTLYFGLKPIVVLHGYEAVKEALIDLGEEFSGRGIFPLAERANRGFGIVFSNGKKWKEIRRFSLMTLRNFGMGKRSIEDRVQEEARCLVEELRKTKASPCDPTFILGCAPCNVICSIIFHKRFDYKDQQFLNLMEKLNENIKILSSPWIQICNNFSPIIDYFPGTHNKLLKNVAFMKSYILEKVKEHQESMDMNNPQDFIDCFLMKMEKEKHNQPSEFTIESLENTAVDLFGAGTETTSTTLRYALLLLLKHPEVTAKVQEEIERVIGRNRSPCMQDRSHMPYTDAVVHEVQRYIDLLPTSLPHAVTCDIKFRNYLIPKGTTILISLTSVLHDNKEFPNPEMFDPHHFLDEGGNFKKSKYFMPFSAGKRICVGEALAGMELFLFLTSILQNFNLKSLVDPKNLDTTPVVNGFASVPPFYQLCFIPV
structure (smiles),measurement,setting,value
COc1ccc(/C=C/c2cc(OC)cc(B(O)O)c2)cc1 [VMY-BC-1],Body weight,[1]; 75 mg/kg PO daily for 14 days,without any apparent change in body weight
same,Tumor growth inhibition,[1]; 75 mg/kg PO daily for 14 days,approximately 30%
same,Apoptosis by TUNEL staining,"[1]; tumor tissue, 75 mg/kg PO",significant increase in apoptosis
same,Reduction in Ki67 proliferation marker vs control,"[1]; tumor tissue, 75 mg/kg PO",50%
same,Phospho-ULK1 and LC3 protein expression in tumors,"[1]; tumor tissue, 24 hours after treatment",upregulated
same,Plasma clearance,[2]; 1 mg/kg intravenously,50 % of hepatic blood flow
same,half-life,"[2]; male, CD1, mouse, plasma, iv, 1 mg/kg intravenously, read-out: Elimination half-life (converted)",~1 h
same,Vd,"[2]; male, CD1, mouse, plasma, iv, 1 mg/kg intravenously, read-out: Volume of distribution",2.4 L/kg
same,bioavailability,"[2]; male, CD1, mouse, plasma, 25 mg/kg oral, read-out: Oral suspension bioavailability F (%)",> 100%
same,Cmax,"[2]; male, CD1, mouse, plasma, oral, dose not given, read-out: Mean maximum concentration (Cmax)",3060 ng/mL
same,Tmax,"[2]; male, CD1, mouse, plasma, oral, read-out: Time to maximum concentration (Tmax)",1 to 2 h
same,Increase in Cmax,[2]; oral dose 25 to 100 mg/kg,approximately 5 fold
same,Increase in plasma exposures,[2]; oral dose 25 to 100 mg/kg,~7 fold
same,IC50,GBM4,11 µM
same,IC50,GL261,4.2 µM
same,IC50,U87,5.88 µM
same,IC50,GBM8,9.28 µM
same,IC50,U251,3.98 µM
same,Pathways altered (Ingenuity Pathway Analysis),MDA-MB-231,"activation of apoptosis, autophagy, and DNA damage pathways, and inhibition of mTOR1, PI3K, and AKT pathways"
same,IC50,CYP2C9,78.4 µM
same,PolyQ aggregations vs vehicle (DMSO),[3],decreased
same,IC50,CYP3A4; read-out: IC50 CYP 3A,70 to 100 µM
same,IC50,CYP3A4; read-out: IC50 inhibition of CYP3A4MD2,> 100 µM
same,IC50,CYP3A4; read-out: IC50 inhibition of CYP3A4TST,> 100 µM
same,Target proteins identified that bound VMY-BC-1,"[4]; 10 μM, 24 hours, 5,634 proteins screened",10
same,Fraction of bound protein,"[4]; of 5,634 proteins screened",0.0017 fraction
